The values below come from patent US11834453B2, “Substituted pyrimido[5,4-d]pyrimidines as HER2 inhibitors” (Array BioPharma Inc., priority 2020, dated 2023).

The structures appear in SMILES notation. Read-outs that look alike come from different tables or passages of the source.

Series [1] addresses ErbB2 insYVMA (HER2-YVMA, SEQ ID NO: 2) (Homo sapiens, UniProt P04626, INS775YVMA/P1170A). The series can be described thus: biochemical. As to conditions: ErbB2 insYVMA enzyme assay.
A further series deals with ErbB2 WT (Homo sapiens (Human), UniProt P04626). Description: ErbB enzyme assay (CisBio HTRF KinEASE-TK), Assay 2. In kind it is biochemical. In short, it runs like this: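 Readout is HTRF KinEASE-TK, using Sa-XL665 and cryptate antibody for 1 h at 22 °C, as percent of control between DMSO-only (100) and pre-quenched (0) reactions. The kinase reaction runs 30 min at 22 °C with 1 mM ATP and 250 nM biotinylated TK substrate, in HEPES pH 7.4 with MgCl2 and 2% DMSO.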
On the technique in general: TR-FRET usually uses a lanthanide donor and a delayed reading to cut background.

For a further series, the target named is EGFR (Homo sapiens (Human), UniProt P00533). Description: ErbB enzyme assay (CisBio HTRF KinEASE-TK), Assay 3. It counts as biochemical. The procedure, abridged:
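HTRF dual-wavelength read after 1 h detection; POC normalised to DMSO (100) and pre-quenched (0) controls, IC50 where 4-parameter curve crosses 50 POC. Reaction: 250 nM TK-substrate biotin, 1 mM ATP, pH 7.4 HEPES buffer with MgCl2, 30 min, 22 °C.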

The target in series [2] is ErbB2 with Exon 20 YVMA insertion (HER2-YVMA) (Homo sapiens (Human), UniProt P04626, INS775YVMA). Description: Cellular phosphorylation assay, constitutive ErbB2 phosphorylation (Y1196) in engineered NIH 3T3 cells, Assay 4. It counts as cell-based. In short, it runs like this:
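In-cell Western in NIH 3T3 cells carrying ErbB2 exon 20 YVMA insertion, with no ligand stimulation. One hour compound exposure at 37 °C before fixation and anti-pY1196 plus GAPDH staining with dual-wavelength fluorescence. IC50 derived after GAPDH normalization.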

A further series has as its target EGFR wild type (EGFR WT) (Homo sapiens (Human), UniProt P00533). The series can be described thus: Cellular phosphorylation assay, EGF-stimulated EGFR phosphorylation in engineered NIH 3T3 cells, Phospho-EGFR DuoSet IC ELISA, Assay 5. It counts as cell-based. The procedure, abridged: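 Phospho-EGFR ELISA on lysates of engineered NIH 3T3 EGFR WT cells, IC50 derived from concentration curves. Cells plated at 20,000/well overnight, given compound dilutions 1 h at 37 °C, then rEGF 100 ng/ml for a further 10 min before lysis.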
Background: ELISA stands for enzyme-linked immunosorbent assay.

The target in the next series is MDR1 (P-gp) (Homo sapiens (Human), UniProt P08183). The series can be described thus: MDR1 transfected MDCKII canine Mdr1 knockout permeability/efflux, Assay 7. As to conditions: for efflux ratio at 2 h, 1 μM: dog, MDCK-MDR1.
Sequence of MDR1 (P-gp) (P08183 whole entry): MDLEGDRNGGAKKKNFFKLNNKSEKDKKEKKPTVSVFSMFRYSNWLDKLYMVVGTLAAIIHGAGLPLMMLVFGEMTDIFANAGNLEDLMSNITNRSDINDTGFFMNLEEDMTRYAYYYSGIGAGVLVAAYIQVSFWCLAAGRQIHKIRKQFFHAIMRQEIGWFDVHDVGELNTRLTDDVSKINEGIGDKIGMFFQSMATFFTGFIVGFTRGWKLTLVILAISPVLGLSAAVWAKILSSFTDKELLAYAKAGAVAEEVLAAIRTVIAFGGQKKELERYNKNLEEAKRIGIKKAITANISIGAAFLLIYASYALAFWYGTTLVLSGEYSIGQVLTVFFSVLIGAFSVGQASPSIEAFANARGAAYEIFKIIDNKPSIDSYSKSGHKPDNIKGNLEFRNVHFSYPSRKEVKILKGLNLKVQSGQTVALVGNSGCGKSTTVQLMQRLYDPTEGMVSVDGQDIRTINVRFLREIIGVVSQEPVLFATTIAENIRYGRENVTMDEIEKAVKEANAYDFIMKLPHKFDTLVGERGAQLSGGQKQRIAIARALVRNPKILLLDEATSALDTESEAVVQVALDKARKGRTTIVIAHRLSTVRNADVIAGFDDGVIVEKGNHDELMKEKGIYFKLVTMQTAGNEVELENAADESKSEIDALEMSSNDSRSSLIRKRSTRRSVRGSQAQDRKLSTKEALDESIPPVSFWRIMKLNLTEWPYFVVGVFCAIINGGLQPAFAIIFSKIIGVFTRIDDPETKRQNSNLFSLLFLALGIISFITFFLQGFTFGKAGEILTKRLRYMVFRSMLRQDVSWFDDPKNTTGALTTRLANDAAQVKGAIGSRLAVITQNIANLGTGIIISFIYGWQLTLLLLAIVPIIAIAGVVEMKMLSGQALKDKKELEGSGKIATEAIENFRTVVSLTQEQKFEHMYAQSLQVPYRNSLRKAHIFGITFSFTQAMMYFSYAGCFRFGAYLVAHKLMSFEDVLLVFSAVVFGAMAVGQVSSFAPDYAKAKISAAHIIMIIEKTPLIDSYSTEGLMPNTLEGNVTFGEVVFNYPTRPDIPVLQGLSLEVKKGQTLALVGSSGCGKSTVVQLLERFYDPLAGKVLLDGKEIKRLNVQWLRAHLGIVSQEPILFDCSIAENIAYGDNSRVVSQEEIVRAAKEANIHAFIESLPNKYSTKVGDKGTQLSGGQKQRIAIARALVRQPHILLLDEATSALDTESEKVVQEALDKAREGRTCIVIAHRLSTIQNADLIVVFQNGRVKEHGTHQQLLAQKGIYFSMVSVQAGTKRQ
A further series deals with BCRP (Homo sapiens (Human), UniProt Q9UNQ0). The series can be described thus: BCRP transfected MDCKII canine Mdr1 knockout permeability/efflux, Assay 9. As to conditions: for efflux ratio at 2 h, 1 μM: dog.
[3] abbreviates: Assay 9 Pe Ratio, efflux ratio Papp(B-A)/Papp(A-B), BCRP transfected MDCKII canine Mdr1 knockout.

Sequence of EGFR (P00533 25-1210): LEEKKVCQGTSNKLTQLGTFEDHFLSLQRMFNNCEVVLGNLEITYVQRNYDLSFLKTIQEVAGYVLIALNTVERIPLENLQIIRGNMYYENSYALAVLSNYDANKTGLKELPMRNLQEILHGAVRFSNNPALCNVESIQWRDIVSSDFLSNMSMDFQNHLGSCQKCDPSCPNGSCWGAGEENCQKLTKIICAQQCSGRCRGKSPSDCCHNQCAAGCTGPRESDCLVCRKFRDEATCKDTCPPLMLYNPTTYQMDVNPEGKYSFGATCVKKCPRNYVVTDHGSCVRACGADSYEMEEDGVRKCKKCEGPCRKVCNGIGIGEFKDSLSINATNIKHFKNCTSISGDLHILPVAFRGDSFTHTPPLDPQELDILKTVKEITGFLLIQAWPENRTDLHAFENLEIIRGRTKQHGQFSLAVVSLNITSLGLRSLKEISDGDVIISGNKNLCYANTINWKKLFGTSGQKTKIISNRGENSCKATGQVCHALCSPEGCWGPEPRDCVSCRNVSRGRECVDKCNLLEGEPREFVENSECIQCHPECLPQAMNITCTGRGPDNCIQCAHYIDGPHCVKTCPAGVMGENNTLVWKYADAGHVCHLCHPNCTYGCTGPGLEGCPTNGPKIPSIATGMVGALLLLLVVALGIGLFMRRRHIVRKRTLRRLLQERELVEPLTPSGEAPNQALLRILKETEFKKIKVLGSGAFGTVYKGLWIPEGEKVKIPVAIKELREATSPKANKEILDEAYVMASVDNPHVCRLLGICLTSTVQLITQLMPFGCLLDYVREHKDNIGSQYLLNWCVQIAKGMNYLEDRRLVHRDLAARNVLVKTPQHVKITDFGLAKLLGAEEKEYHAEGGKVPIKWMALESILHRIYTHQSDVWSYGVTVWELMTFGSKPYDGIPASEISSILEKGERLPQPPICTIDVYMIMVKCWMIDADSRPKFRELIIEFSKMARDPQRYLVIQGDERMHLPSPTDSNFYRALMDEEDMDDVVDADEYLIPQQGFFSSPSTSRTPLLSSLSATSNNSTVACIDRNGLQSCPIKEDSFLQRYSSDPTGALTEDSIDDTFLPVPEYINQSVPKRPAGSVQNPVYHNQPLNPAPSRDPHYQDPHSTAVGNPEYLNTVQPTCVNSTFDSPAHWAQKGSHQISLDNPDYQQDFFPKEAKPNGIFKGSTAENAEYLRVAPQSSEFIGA
Sequence of EGFR wild type (EGFR WT) (P00533 25-1210): as above
Sequence of ErbB2 insYVMA (HER2-YVMA, SEQ ID NO: 2) (P04626 with tags, fused parts or gaps INS775YVMA/P1170A limits assumed): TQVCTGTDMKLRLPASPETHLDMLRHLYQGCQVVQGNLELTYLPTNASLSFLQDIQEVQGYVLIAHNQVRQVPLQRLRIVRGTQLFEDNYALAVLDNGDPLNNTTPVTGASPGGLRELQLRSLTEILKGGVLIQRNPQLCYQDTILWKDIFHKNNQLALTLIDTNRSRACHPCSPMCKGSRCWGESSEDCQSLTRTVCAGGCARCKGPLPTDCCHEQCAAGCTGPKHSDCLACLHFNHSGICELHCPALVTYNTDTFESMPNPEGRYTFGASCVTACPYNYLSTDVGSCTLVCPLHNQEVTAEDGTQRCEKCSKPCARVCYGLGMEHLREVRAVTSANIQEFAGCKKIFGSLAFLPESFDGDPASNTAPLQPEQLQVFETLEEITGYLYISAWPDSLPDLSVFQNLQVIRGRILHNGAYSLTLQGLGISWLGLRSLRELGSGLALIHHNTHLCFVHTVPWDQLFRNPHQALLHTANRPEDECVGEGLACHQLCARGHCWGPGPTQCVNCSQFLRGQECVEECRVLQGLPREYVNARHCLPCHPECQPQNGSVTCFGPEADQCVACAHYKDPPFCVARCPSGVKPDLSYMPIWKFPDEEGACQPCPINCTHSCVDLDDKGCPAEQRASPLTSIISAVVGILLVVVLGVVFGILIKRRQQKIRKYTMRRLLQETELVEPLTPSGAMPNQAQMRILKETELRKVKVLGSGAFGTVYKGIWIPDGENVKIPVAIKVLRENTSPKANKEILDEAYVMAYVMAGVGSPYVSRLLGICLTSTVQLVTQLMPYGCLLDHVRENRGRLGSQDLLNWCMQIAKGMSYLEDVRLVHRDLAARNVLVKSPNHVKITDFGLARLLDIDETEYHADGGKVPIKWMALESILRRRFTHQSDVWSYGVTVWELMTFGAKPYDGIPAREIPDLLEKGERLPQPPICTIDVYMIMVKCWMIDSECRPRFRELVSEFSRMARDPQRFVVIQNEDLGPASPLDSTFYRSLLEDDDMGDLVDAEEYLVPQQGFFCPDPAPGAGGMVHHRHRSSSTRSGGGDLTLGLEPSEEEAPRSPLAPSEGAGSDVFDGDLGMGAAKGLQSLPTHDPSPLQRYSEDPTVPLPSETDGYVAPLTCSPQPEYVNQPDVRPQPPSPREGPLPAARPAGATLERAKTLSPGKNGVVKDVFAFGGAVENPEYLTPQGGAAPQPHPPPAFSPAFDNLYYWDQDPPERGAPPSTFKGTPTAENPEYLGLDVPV

For orientation: IC50 means the concentration at which inhibition is half-maximal. Usually efflux ratio stands for a quotient of directional permeabilities that is used to spot active efflux. For `Cc1cc(Nc2ncnc3cnc(N(C)[C@H]4CCOC4)nc23)ccc1Oc1ccc2c(c1)ncn2C` [Example 131, (S)—N2-methyl-N8-(3-methyl-4-((1-methyl-1H-benzo[d]imidazol-5-yl)oxy)phenyl)-N2-(tetrahydrofuran-3-yl)pyrimido[5,4-d]pyrimidine-2,8-diamine], the IC50 in series [1] (read-out: Assay 1 IC50) was 21 nM; at ErbB2 WT, 20 nM; at EGFR it was 3270 nM; in series [2] it was 36.3 nM; against EGFR wild type (EGFR WT), not below 5000 nM. For the same compound, the efflux ratio at 2 h, 1 μM stood at 1.6 on MDR1 (P-gp) and 1.4 on BCRP (setting [3]).

On to `Clc1cc(Nc2ncnc3cnc(N4CCC45COC5)nc23)ccc1Oc1ccn2ncnc2c1` [Example 132, N-(4-([1,2,4]triazolo[1,5-a]pyridin-7-yloxy)-3-chlorophenyl)-6-(6-oxa-1-azaspiro[3.3]heptan-1-yl)pyrimido[5,4-d]pyrimidin-4-amine], for which the IC50 in series [1] (read-out: Assay 1 IC50) was 5.8 nM; against ErbB2 WT it was 5.6 nM; at EGFR, 801 nM; in series [2], 19.9 nM; on EGFR wild type (EGFR WT), not below 5000 nM. Also, the efflux ratio at 2 h, 1 μM was 1.1 on MDR1 (P-gp) and 1.8 on BCRP.

For the compound `Cn1cnc2cc(Oc3ccc(Nc4ncnc5cnc(N6CCC67COC7)nc45)cc3Cl)ccc21.O=C(O)C(F)(F)F` [Example 145, N-(3-chloro-4-((1-methyl-1H-benzo[d]imidazol-5-yl)oxy)phenyl)-6-(6-oxa-1-azaspiro[3.3]heptan-1-yl)pyrimido[5,4-d]pyrimidin-4-amine], the IC50 in series [1] (Assay 1 IC50 (nM)) was 19.3 nM; at ErbB2 WT, 19.6 nM; against EGFR it was 896 nM; in series [2] it was 20.2 nM; on EGFR wild type (EGFR WT), not below 5000 nM. The efflux ratio at 2 h, 1 μM at MDR1 (P-gp) came to 0.7; on BCRP it was 2.1.

Take `Cn1cnc2cc(Oc3ccc(Nc4ncnc5cnc(N6CCN[C@@H](C(F)(F)F)C6)nc45)cc3Cl)ccc21.O=C(O)C(F)(F)F` [Example 146, (R)—N-(3-chloro-4-((1-methyl-1H-benzo[d]imidazol-5-yl)oxy)phenyl)-6-(3-(trifluoromethyl)piperazin-1-yl)pyrimido[5,4-d]pyrimidin-4-amine 2,2,2-trifluoroacetate]: the IC50 in series [1] (Assay 1 IC50 (nM)) is 54.1 nM; on ErbB2 WT it was 58.2 nM; on EGFR, 3720 nM; in series [2] it was 35.5 nM; at EGFR wild type (EGFR WT) it was not below 5000 nM. The efflux ratio at 2 h, 1 μM on MDR1 (P-gp) was 0.8; on BCRP, 5.1.

On to `Cc1c(Oc2ccc3c(c2)ncn3C)ccc(Nc2ncnc3cnc(N4CCC[C@](C)(O)C4)nc23)c1F` [Example 147, (S)-1-(8-((2-fluoro-3-methyl-4-((1-methyl-1H-benzo[d]imidazol-5-yl)oxy)phenyl)amino)pyrimido[5,4-d]pyrimidin-2-yl)-3-methylpiperidin-3-ol], for which the IC50 in series [1] (read-out: Assay 1 IC50) is 74.2 nM; on ErbB2 WT it was 45.5 nM; on EGFR it was 2650 nM; in series [2], 32.6 nM; against EGFR wild type (EGFR WT), not below 5000 nM. The efflux ratio at 2 h, 1 μM on MDR1 (P-gp) was 1; on BCRP (setting [3]), 2.7.

Take `Cc1cc(Nc2ncnc3cnc(N(C)C4CCOCC4)nc23)ccc1Oc1ccc2c(c1)ncn2C` [Example 153, N2-methyl-N8-(3-methyl-4-((1-methyl-1H-benzo[d]imidazol-5-yl)oxy)phenyl)-N2-(tetrahydro-2H-pyran-4-yl)pyrimido[5,4-d]pyrimidine-2,8-diamine]: the IC50 was 7.6 nM in series [1] (read-out: Assay 1 IC50); 16.3 nM at ErbB2 WT; 5550 nM on EGFR; 25 nM in series [2]; not below 5000 nM against EGFR wild type (EGFR WT). For the same compound, the efflux ratio at 2 h, 1 μM at MDR1 (P-gp) is 1.5; on BCRP (setting [3]) it was 1.4.

On to `Cc1cc(Nc2ncnc3cnc(N4CC[C@@](C)(O)C4)nc23)ccc1Oc1ccc2c(c1)ncn2C` [Example 154, (R)-3-methyl-1-(8-((3-methyl-4-((1-methyl-1H-benzo[d]imidazol-5-yl)oxy)phenyl)amino)pyrimido[5,4-d]pyrimidin-2-yl)pyrrolidin-3-ol], for which the IC50 in series [1] (read-out: Assay 1 IC50) was 10.3 nM; at ErbB2 WT it was 8 nM; against EGFR, 1940 nM; in series [2], 15.7 nM; against EGFR wild type (EGFR WT), not below 5000 nM. Also, the values for the efflux ratio at 2 h, 1 μM on MDR1 (P-gp) and at BCRP (setting [3]) were 2.1 and 34, respectively.

Turning to `Cc1cc(Nc2ncnc3cnc(N4CC5(C4)CC(C)(O)C5)nc23)ccc1Oc1ccc2c(c1)ncn2C` [Example 156, 6-methyl-2-(8-((3-methyl-4-((1-methyl-1H-benzo[d]imidazol-5-yl)oxy)phenyl)amino)pyrimido[5,4-d]pyrimidin-2-yl)-2-azaspiro[3.3]heptan-6-ol], the IC50 is 6.4 nM in series [1] (read-out: Assay 1 IC50); 5.2 nM on ErbB2 WT; not below 10000 nM against EGFR; 12.3 nM in series [2]; not below 5000 nM on EGFR wild type (EGFR WT). The efflux ratio at 2 h, 1 μM at MDR1 (P-gp) was 2; on BCRP it was 26.

As for `Cc1cc(Nc2ncnc3cnc(N4C[C@H]5C[C@@H]4C[C@@H]5O)nc23)ccc1Oc1ccc2c(c1)ncn2C` [Example 157, (1R,4R,5S)-2-(8-((3-methyl-4-((1-methyl-1H-benzo[d]imidazol-5-yl)oxy)phenyl)amino)pyrimido[5,4-d]pyrimidin-2-yl)-2-azabicyclo[2.2.1]heptan-5-ol], the IC50 in series [1] (read-out: Assay 1 IC50) is 33.5 nM; on ErbB2 WT, 56.8 nM; against EGFR, not below 10000 nM; in series [2], 27.8 nM; against EGFR wild type (EGFR WT), not below 5000 nM. Besides, on MDR1 (P-gp) (efflux ratio Papp(B-A)/Papp(A-B), MDR1 transfected MDCKII canine Mdr1 knockout), the “Assay 7 Pe Ratio” value stood at 2.1. For the same compound, the “Assay 9 Pe Ratio” value at BCRP (efflux ratio Papp(B-A)/Papp(A-B), BCRP transfected MDCKII canine Mdr1 knockout) worked out at 21.0.

For the compound `Cc1cc(Nc2ncnc3cnc(N4CC5CC5(O)C4)nc23)ccc1Oc1ccc2c(c1)ncn2C` (stereo not shown) [Example 158, 3-(8-((3-methyl-4-((1-methyl-1H-benzo[d]imidazol-5-yl)oxy)phenyl)amino)pyrimido[5,4-d]pyrimidin-2-yl)-3-azabicyclo[3.1.0]hexan-1-ol], the IC50 was 29.4 nM in series [1] (read-out: Assay 1 IC50); 58.2 nM against ErbB2 WT; not below 10000 nM at EGFR; 9.8 nM in series [2]; not below 5000 nM against EGFR wild type (EGFR WT). The efflux ratio at 2 h, 1 μM was 1.9 at MDR1 (P-gp) and 33.8 on BCRP (setting [3]).

For the compound `Cc1cc(Nc2ncnc3cnc(N4CCN(C5COC5)CC4)nc23)ccc1Oc1ccc2c(c1)ncn2C` [Example 159, N-(3-methyl-4-((1-methyl-1H-benzo[d]imidazol-5-yl)oxy)phenyl)-6-(4-(oxetan-3-yl)piperazin-1-yl)pyrimido[5,4-d]pyrimidin-4-amine], the IC50 is 28.7 nM in series [1] (read-out: Assay 1 IC50); 40.7 nM at ErbB2 WT; 7370 nM at EGFR; 17 nM in series [2]; not below 5000 nM at EGFR wild type (EGFR WT). Also, the efflux ratio at 2 h, 1 μM at MDR1 (P-gp) came out at 2.1; on BCRP (setting [3]) it was 9.6.

With `Cc1cc(Nc2ncnc3cnc(N4CCC(O)(C(F)F)CC4)nc23)ccc1Oc1ccc2c(c1)ncn2C` [Example 168, 4-(difluoromethyl)-1-(8-((3-methyl-4-((1-methyl-1H-benzo[d]imidazol-5-yl)oxy)phenyl)amino)pyrimido[5,4-d]pyrimidin-2-yl)piperidin-4-ol], the IC50 is 39.1 nM in series [1] (read-out: Assay 1 IC50); 113 nM on ErbB2 WT; 3680 nM against EGFR; 6.5 nM in series [2]; not below 5000 nM against EGFR wild type (EGFR WT). Besides, the results for the efflux ratio at 2 h, 1 μM at MDR1 (P-gp) and at BCRP (setting [3]) were 2 and 16.7, respectively.

Turning to `Cc1cc(Nc2ncnc3cnc(N4C[C@H](O)C(F)(F)C4)nc23)ccc1Oc1ccc2c(c1)ncn2C` [Example 170, (S)-4,4-difluoro-1-(8-((3-methyl-4-((1-methyl-1H-benzo[d]imidazol-5-yl)oxy)phenyl)amino)pyrimido[5,4-d]pyrimidin-2-yl)pyrrolidin-3-ol], the IC50 was 20.1 nM in series [1] (read-out: Assay 1 IC50); 28.6 nM against ErbB2 WT; not below 10000 nM against EGFR; 3.4 nM in series [2]; not below 5000 nM on EGFR wild type (EGFR WT). Besides, the figures for the efflux ratio at 2 h, 1 μM at MDR1 (P-gp) and on BCRP (setting [3]) were 2.1 and 36, respectively.
